Brain water content, LDH and SOD data for one compound are collected here from patent publication US20090170801A1 (Beijing Century Biocom Pharmaceutical Technology Co. Ltd., priority 2006, published 2009).

In one assay the test system is decapitated mice. In words: Breathing time, breathing frequency, brain index and brain water content in decapitated mice. It is filed as in vivo, ICR mice. The conditions noted are these: 2 mg/kg tail i.v. How it is done:
The model group was administrated normal salt. At 15 minutes after administration, the mice were decapitated by a pair of scissors. The mouth breathing time, breathing frequency and brain water content were recorded and compared with other groups. Whole brains were collected. After the wet weight was obtained, they were dried in an oven at 100° C. for 24 hours. The average value was taken to calculate brain water content: brain water content (%)=[…]. Brain index: brain index=brain wet weight (g)/body weight (g)×100%.

In a further assay the test system is brain of ischemic mice. Description: Cerebral ischemia in mice with common carotid artery ligation and reperfusion (brain LDH and SOD). It is filed as in vivo. The conditions noted are these: 2 mg/kg tail i.v. How it is done:
Grouped mice were respectively administered test substance, nimodipine or normal salt by tail intravenous injection. After 15 minutes, the mice were anesthetized with 3.5% chloral hydrate, fixed in the back. The right and left common carotid artery and vagus nerve were exposed, and 4-0 suture was inserted under the bilateral carotid artery. The suture was tightened to block blood flow for 5 minutes. Then the line was loosened to restore blood flow for 10 minutes. The operation was repeated three times, and an ischemia-reperfusion model in mice was established. After the last reperfusion, the mice were decapitated and brain collected. In the control group, only the bilateral carotid arteries were exposed, without a suture being inserted.

In the case of `COCCOC(=O)C1=C(C)NC(C)=C(C(=O)OC(C)C)C1c1cccc([N+](=O)[O-])c1` (stereo not drawn) [Nimodipine, nimodipine], the Brain water content in the assay with decapitated mice came out at 75.8 ± 1.0 %. In the assay on brain of ischemic mice, this compound came in with an LDH of 11.3 ± 6.6 U/mg and an SOD of 144.77 ± 21.61 U/mg.
